Columns and labels:
[1] = system: Epstein-Barr virus (EBV) Akata strain; experiment: EBV secondary assay, qPCR of viral DNA in induced Akata cells; assay type: cell-based
Procedure: EBV Akata strain was assayed in Akata cells (John Sixbey, LSU) latently infected with EBV (and therefore oncogenic). Cells were maintained in RPMI 1640, (Mediatech) with 10% FBS (Hyclone), L-glutamine, penicillin and gentamicin.
Secondary assay for EBV were performed in Akata cells that were induced to undergo a lytic infection with 50μg/ml of a goat anti-human IgG antibody by methods we reported previously. Experimental compounds were diluted in round bottom 96-well plates to yield concentrations ranging from 0.0032–100μM. Akata cells were added to the plates at a concentration of 4×10^4 cells per well and […]. Assay plates were incubated for seven days at 37°C. For all assays, the replication of the virus was assessed by the quantification of viral DNA. For primer sequences, please see S1 Table. EBV DNA was purified according to manufacturer’s instructions (Wizard SV 96 Genomic DNA Purification System). The purified DNA was then subjected to qPCR that amplified a fragment corresponding to nucleotides 96802–97234 in the EBV genome (AJ507799). Plasmid pMP218 containing a DNA sequences corresponding to nucleotides 14120–14182 (AF148805.2) was used to provide absolute quantification of viral DNA. Compound concentrations sufficient to reduce genome copy number by 50% were calculated from experimental data.

[2] = Cytotoxicity in Akata cells (CellTiter-Glo), concurrent with EBV assays; assay type: cell-based; conditions: human
Procedure: Cytotoxicity assays: Concurrent assessment of cytotoxicity was also performed for each study in the same cell line and with the same compound exposure. For KSHV, cell viability was assessed with the CellTiter-Glo Luminescent Cell Viability Assay (Promega) using manufacturer’s protocol. Luminescence was quantified on a luminometer. Standard methods were used to calculate the 50% cytotoxic level (CC50). Cytotoxicity assay was performed in a manner analogous to KSHV (see above).

Human CMV strain AD169 = experiment: HCMV yield reduction assay in HFF cells; assay type: cell-based, human cytomegalovirus; conditions: Human betaherpesvirus 5, AD169, HFF
Procedure: Human CMV strain AD169 was obtained from ATCC and assayed in human foreskin fibroblast cells (HFF). HFF cells were prepared at the University of Alabama at Birmingham (UAB) tissue procurement facility with IRB approval as previously described. Yield reduction assays for HCMV were performed on monolayers of HFF cells prepared in 96-well plates and incubated at 37°C for 1d to allow the cells to reach confluency. Media was then aspirated from the wells were infected at a high multiplicity of infection (MOI). At 1h following infection, the inocula were removed and the monolayers rinsed with fresh media. Compounds were then diluted in assay media consisting of MEM with Earl’s salts supplemented with 2% FBS, L-glutamine, penicillin, and gentamycin. Solutions ranging from 0.0032–10μM in primary assay and 0.032–100μM in secondary assay were added to the wells and the plates were incubated for various times, depending on the virus used and represents the length of a single replication cycle for the virus. A duplicate set of dilutions were also performed but remained uninfected to serve as a cytotoxicity control and received equal compound exposure. Supernatants from each of the infected wells were subsequently titered in a TCID50 assay to quantify the progeny virus.

[3] = Cytotoxicity in HEK293 cells (cell counter viability); assay type: cell-based; conditions: human, HPV-11 primary screen
Procedure: (§1) Cytotoxicity assays: Concurrent assessment of cytotoxicity was also performed for each study in the same cell line and with the same compound exposure.
(§2) HPV cytotoxicity assay was performed at the time of viral harvest by scoring cells in a BioRad Automatic Cell Counter for cell viability.

HPV-18 = HPV-18 DNA amplification in organotypic raft culture of PHKs (qPCR); assay type: cell-based, human papillomavirus
Procedure: HPV-11 and -18 were tested in HEK293 cells and primary human keratinocytes (PHK), respectively. PHKs were isolated from neonatal foreskins following circumcision according to IRB-approved protocols at UAB. They were grown in keratinocyte serum-free medium (Life Technologies) with mitomycin C-treated J2 feeder cells (Swiss 3T3 J2 fibroblasts; Elaine Fuchs, Rockefeller University). HEK 293 cells were maintained under standard conditions.
(§3) For secondary assays, the amplification of HPV-18 DNA was determined in an organotypic squamous epithelial raft culture of PHKs. Whole genomic HPV-18 plasmids were generated in plasmid-transfected PHKs and developed into organotypic cultures as described. Based on the results of a 3-day toxicity assay, concentrations of test compound were added to a subset of raft cultures from day 6 through day 13 when the cultures were harvested. Similarly treated normal PHK raft cultures were also prepared to assess toxicity of uninfected tissue. One set of cultures were fixed in 10% buffered formalin, paraffin embedded and sectioned for in situ assay. Sections were stained with hematoxylin and eosin. Total DNA harvest from unfixed raft cultures was used to determine the HPV-18 copy number/per cell by qPCR. Inhibition was expressed as % of viral DNA copies relative to the untreated cultures.

[4] = Cytotoxicity in primary human keratinocytes (PHK); assay type: cell-based; conditions: HPV-18 secondary screen, PHKs
Procedure: as §1, §2, §3

[5] = system: Guinea pig CMV strain 22122; experiment: GPCMV plaque reduction assay in GPL cells; assay type: cell-based, guinea pig cytomegalovirus; conditions: in Cavia porcellus, primary screen
Procedure: Murine CMV strain Smith was obtained from Earl Kern and assayed in mouse embryonic fibroblast cells (MEF) immortalized by telomerization. Guinea pig CMV strain 22122 was obtained from the ATCC and assayed in primary guinea pig lung cells (GPL). Both MEF and GPL cells were prepared at the UAB tissue procurement facility with IRB approval as previously described.
Plaque reduction assays for MCMV, GPCMV were performed on monolayers of GPL (GPCMV) or MEF (MCMV) cells prepared in six-well plates and incubated at 37°C for 2d to allow the cells to reach confluency. Media was then aspirated from the wells and 0.2ml of virus was added to each of three wells to yield 20–30 plaques in each well. The virus was allowed to adsorb to the cells for 1h and the plates were agitated every 15min. Compounds were diluted in assay media consisting of MEM with Earl’s salts supplemented with 2% FBS, L-glutamine, penicillin, and gentamycin. Solutions ranging from 0.0032–10μM (primary) or 0.032–100μM (secondary) were added to triplicate wells and the plates were incubated for various times, depending on the virus used. For MCMV and GPCMV, the cell monolayer was stained with 1% neutral red solution for 4h at which time the stain was aspirated and cells were washed with PBS. […]

[6] = Cytotoxicity in GPL cells; assay type: cell-based; conditions: primary guinea pig lung cells (GPL), Guinea pig CMV primary screen
Procedure: Cytotoxicity assays: Concurrent assessment of cytotoxicity was also performed for each study in the same cell line and with the same compound exposure. For HCMV cytotoxicity assay was determined via neutral red uptake assay and was conducted as reported previously in HFF cells. Optical densities were determined at 550nm. Cytotoxicity assay was performed in a manner analogous to HCMV (see above).

histamine H1 receptor = histamine H1 receptor (Homo sapiens, UniProt P35367); experiment: Histamine H1 receptor functional activity assay, antagonist; assay type: biochemical; conditions: Study No. KS-1017, read-out: IC50 (50% inhibitory concentration)
histamine H1 receptor, sequence (P35367 whole entry, species assumed): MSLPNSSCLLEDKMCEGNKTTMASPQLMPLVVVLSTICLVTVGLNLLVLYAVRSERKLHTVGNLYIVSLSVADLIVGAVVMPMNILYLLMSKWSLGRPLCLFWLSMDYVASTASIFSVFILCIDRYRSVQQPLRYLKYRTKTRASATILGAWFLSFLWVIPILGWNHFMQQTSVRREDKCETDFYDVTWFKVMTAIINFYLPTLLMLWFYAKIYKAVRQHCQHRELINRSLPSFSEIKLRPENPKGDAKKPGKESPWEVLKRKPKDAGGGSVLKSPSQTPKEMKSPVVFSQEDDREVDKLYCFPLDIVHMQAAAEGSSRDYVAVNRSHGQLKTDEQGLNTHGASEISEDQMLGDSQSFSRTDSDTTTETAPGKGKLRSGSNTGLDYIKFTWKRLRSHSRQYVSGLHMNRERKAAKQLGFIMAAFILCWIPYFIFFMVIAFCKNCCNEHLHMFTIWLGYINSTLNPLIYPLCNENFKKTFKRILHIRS

## O=C(C=Cn1cnc(-c2cc(C(F)(F)F)cc(C(F)(F)F)c2)n1)NNc1ccccn1 (stereo in doubt) [verdinexor, (E)-3-[3-[3,5-bis(trifluoromethyl)phenyl]-1,2,4-triazol-1-yl]-N'-pyridin-2-ylprop-2-enehydrazide]
[1]; EBV, secondary screen, qPCR
  SI (Selectivity Index, CC50/EC50): 7
[1]; human gammaherpesvirus 4, Akata
  EC50: 50 nM
[2]; EBV assays
  CC50: < 680 nM
[2]; EBV primary screen
  CC50: 680 nM
[2]; EBV secondary screen
  CC50: 340 nM
Human CMV strain AD169; primary screen
  EC50: 190 nM
Human CMV strain AD169; secondary screen
  EC50: 2500 nM
[3]
  CC50: 89600 nM
HPV-18; Human papillomavirus
  EC50: 8300 nM
HPV-18; secondary screen, PHKs
  efficacy against HPV-18: did not show efficacy
[4]
  CC50: 8300 nM
[5]
  EC50: 190 nM
[6]
  CC50: 2000 nM
Histamine H1 receptor
  IC50: > 10000 nM

— paper PMC6192554, “In vitro toxicity and efficacy of verdinexor, an exportin 1 inhibitor, on opportunistic viruses affecting immunocompromised individuals” (PLoS ONE, 2018)
